Experiment: Parallel artificial membrane permeability assay (PAMPA) for blood-brain barrier permeation, PSR4p analyzer
Details: for Pe (linear velocity of permeation): pH 7.4 buffer, 18 h, ambient temperature, literature compounds, averaged; for Papp at 18 h, 25 µg/mL: pig, PAMPA, pH 7.4
Excerpt: In actual practice, a solution of known concentration of a compound or mixture of compounds in a buffer solution is separated from a buffer solution containing 0% concentration of said compound or mixture of compounds by a porous filter membrane impregnated with a mixture of brain polar lipid extract and dodecane in such a way that the surface of each buffer solution is in contact with opposite sides of said impregnated membrane. After a measured period of time, the concentration of said compound or mixture of compounds is determined for each buffer solution and the rate of diffusion is calculated.
In one embodiment of the invention, a 96-well plate filled with solutions of a known concentration of test sample in a buffer solution (donor) may be covered with a 96-well filter plate wherein the porous filter membrane is impregnated with a mixture of brain polar lipid extract and dodecane and the wells are filled with a buffer solution containing 0% concentration of test sample (acceptor) such that the surface of each buffer solution is in contact with opposite sides of said impregnated filter membrane; after a measured period of time, the donor plate and acceptor plate are separated, the concentration of sample in each buffer solution is determined and the rate of permeation is calculated.
In another embodiment of the invention, a high through-put permeability instrument such as the PSR4p instrument manufactured by pION Inc., Woburn, Mass. may be utilized. In this embodiment, a parallel artificial membrane assay (PAMPA) technique is employed using as artificial membrane a porous filter membrane impregnated with a mixture of brain polar lipid extract and dodecane.
A 100 μL volume of each stock solution is placed into one well of a 96-well plate, and the well plate is placed in a PSR4p permeability analyzer manufactured by pION, Inc., Woburn, Mass. A 10 μL volume of stock solution is robotically added to a deep 96-well plate containing 2.0 mL of pH 7.4 buffer solution. The resultant mixture is mechanically stirred to form the donor solution. A 200 μL volume of each donor solution is placed robotically into 3 wells of a 96-well plate to afford the donor plate. A vial containing 20 mg of porcine polar brain lipid extract manufactured by Avanti Polar Lipids, Inc., Alabaster, Ala., dissolved in 1 mL of dodecane is placed in the reservoir of the PSR4p instrument. A 4 μL volume of this brain lipid solution is placed on the filter surface of each well of a 96-well microtiter filter well plate manufactured by Millipore Corp., Bedford, Mass., wherein the filter is a porous (0.45 μm) polyvinylidenefluoride material approximately 104 μm in thickness. The microtiter plate is then manually placed on an orbital shaker for 1 minute to yield a 96-well microtiter plate having a filter membrane permeated with a 2.0% wt/vol solution of porcine polar brain lipid extract in dodecane. A 200 μL volume of pH 7.4 buffer is robotically inserted into the wells of the thus-prepared microtiter 96-well filter plate to give a receptor plate, this receptor plate is placed on the donor plate to form a sandwich and allowed to stand at ambient temperature for 18 h.
A plate washer manufactured by Tecan, Hombrechin-tikon, Switzerland is then used to prepare a UV transparent 96-well plate (UV plate). The receptor plate is removed from the sandwich, a 150 μL volume of the receptor solution is robotically placed in the UV plate, and the UV absorption at 190–500 nm of each receptor well is recorded. The UV plate is then replaced in the plate washer, washed again and a 150 μL volume of the donor solution is robotically placed in the UV plate and the UV absorption at 190–500 nm of each donor well is recorded.

With `C[C@]12CCC(=O)C=C1CC[C@@H]1[C@@H]2[C@@H](O)C[C@]2(C=O)[C@@H](C(=O)CO)CC[C@@H]12` [Aldosterone] the “Pe (linear velocity of permeation)” value was 1.19 10^−6 cm/s and the Papp at 18 h, 25 µg/mL was < 20 nm/s.
For `Cc1nnc2n1-c1ccc(Cl)cc1C(c1ccccc1)=NC2` [Alprazolam], the “Pe (linear velocity of permeation)” value was 5.44 10^−6 cm/s and the Papp at 18 h, 25 µg/mL was > 40 nm/s.
For `COc1ccc(CCN2CCC(Nc3nc4ccccc4n3Cc3ccc(F)cc3)CC2)cc1` [Astemizole], the “Pe (linear velocity of permeation)” value was 10.66 10^−6 cm/s and the Papp at 18 h, 25 µg/mL was > 40 nm/s.
With `CN(C)CCCN1c2ccccc2Sc2ccc(Cl)cc21` [Chlorpromazine] the “Pe (linear velocity of permeation)” value was 6.36 10^−6 cm/s and the Papp at 18 h, 25 µg/mL was > 40 nm/s.
With `CN1C(=O)CC(=O)N(c2ccccc2)c2cc(Cl)ccc21` [Clobazam] the “Pe (linear velocity of permeation)” value was 16.85 10^−6 cm/s and the Papp at 18 h, 25 µg/mL was > 40 nm/s.
With `NCCc1ccc(O)c(O)c1` [Dopamine] the “Pe (linear velocity of permeation)” value was 0.16 10^−6 cm/s and the Papp at 18 h, 25 µg/mL was < 20 nm/s.
With `Cc1cc(NC(=O)C2=C(O)c3ccccc3S(=O)(=O)N2C)no1` [Isoxicam] the “Pe (linear velocity of permeation)” value was 0.25 10^−6 cm/s and the Papp at 18 h, 25 µg/mL was < 20 nm/s.
For `CN(C)C(=O)C(CCN1CCC(O)(c2ccc(Cl)cc2)CC1)(c1ccccc1)c1ccccc1` [Loperamide], the “Pe (linear velocity of permeation)” value was 0.00 10^−6 cm/s and the Papp at 18 h, 25 µg/mL was < 20 nm/s.
For `CN1C(C(=O)Nc2ccccn2)=C(O)c2ccccc2S1(=O)=O` [Piroxicam], the “Pe (linear velocity of permeation)” value was 2.53 10^−6 cm/s and the Papp at 18 h, 25 µg/mL was < 20 nm/s.
In the case of `CN(C)CCCN1c2ccccc2Sc2ccccc21` [Promazine], the “Pe (linear velocity of permeation)” value is reported as 8.84 10^−6 cm/s and the Papp at 18 h, 25 µg/mL is reported as > 40 nm/s.
With `CN1C(C(=O)Nc2ccccn2)=C(O)c2sccc2S1(=O)=O` [Tenoxicam] the “Pe (linear velocity of permeation)” value was 0.14 10^−6 cm/s and the Papp at 18 h, 25 µg/mL was < 20 nm/s.
In the case of `CC(C)(C)c1ccc(C(O)CCCN2CCC(C(O)(c3ccccc3)c3ccccc3)CC2)cc1` (stereo not shown) [Terfenadine], the “Pe (linear velocity of permeation)” value is reported as 0.00 10^−6 cm/s and the Papp at 18 h, 25 µg/mL is reported as < 20 nm/s.
With `CCCC(C)C1(CC)C(=O)NC(=S)NC1=O` (stereo not shown) [Thiopental] the Papp at 18 h, 25 µg/mL was > 40 nm/s.
